The compounds below were run against phosphorylated active hERK2 enzyme (Homo sapiens (Human), UniProt P28482) (assay: Active Human ERK2 (hERK2) Activity Assay (IMAP-FP)). Details: 0.5 nM hERK2, 30 μM ATP, 60 minutes reaction; read-out: ERK 2 Human average IC50.
Chain of phosphorylated active hERK2 enzyme (P28482 whole entry): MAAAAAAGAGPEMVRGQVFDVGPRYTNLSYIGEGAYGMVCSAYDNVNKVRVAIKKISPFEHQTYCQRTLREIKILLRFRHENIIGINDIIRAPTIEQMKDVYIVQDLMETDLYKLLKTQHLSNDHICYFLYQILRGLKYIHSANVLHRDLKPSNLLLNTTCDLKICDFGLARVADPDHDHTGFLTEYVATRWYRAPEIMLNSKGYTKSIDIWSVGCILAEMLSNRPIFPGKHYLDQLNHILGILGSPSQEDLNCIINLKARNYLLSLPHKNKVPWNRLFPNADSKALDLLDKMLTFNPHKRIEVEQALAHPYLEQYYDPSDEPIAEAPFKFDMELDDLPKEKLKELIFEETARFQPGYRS
Assay type: biochemical
Procedure: Active Human ERK2 (hERK2) Activity Assay:
Activated ERK2 activity was determined in an IMAP-FP assay (Molecular Devices).
Work on `C[C@H](c1ccccc1)N1Cc2cc3cn[nH]c3cc2NC1=O` [Example 31, (R)-6-(1-phenylethyl)-5,6-dihydro-1H-pyrazolo[4,3-g]quinazolin-7(8H)-one] yielded an IC50 of 55 nM. With `COC(=O)Nc1n[nH]c2cc3c(cc12)CN([C@H](C)c1ccccc1)C(=O)N3` [Example 33, (R)-methyl(7-oxo-6-(1-phenylethyl)-5,6,7,8-tetrahydro-1H-pyrazolo[4,3-g]quinazolin-3-yl)carbamate] the IC50 was 5.2 nM. `Cc1cc(-c2n[nH]c3cc4c(cc23)CCC(=O)N4O)ccn1` [Example 8, 8-hydroxy-3-(2-methylpyridin-4-yl)-5,6-dihydro-1H-pyrazolo[4,3-g]quinolin-7(8H)-one] showed an IC50 of 3.6 nM. For `C[C@H](c1ccccc1)n1c(=O)[nH]c2cc3[nH]nc(N)c3cc2c1=O` [Example 44, (R)-3-amino-6-(1-phenylethyl)-1H-pyrazolo[4,3-g]quinazoline-5,7(6H,8H)-dione], the IC50 was 45 nM. For `C[C@H](c1ccccc1)N1Cc2cc3c(N)n[nH]c3cc2NC1=O` [Example 32, (R)-3-amino-6-(1-phenylethyl)-5,6-dihydro-1H-pyrazolo[4,3-g]quinazolin-7(8H)-one], the IC50 was 21 nM. Compound `C[C@H](c1ccccc1)N1Cc2cc3c(N[C@@H](C)C(F)(F)F)n[nH]c3cc2NC1=O` [Example 30, 6-((R)-1-phenylethyl)-3-(((S)-1,1,1-trifluoropropan-2-yl)amino)-5,6-dihydro-1H-pyrazolo[4,3-g]quinazolin-7(8H)-one] has an IC50 of 25 nM. With `CCNc1n[nH]c2cc3c(cc12)CN([C@H](C)c1ccccc1)C(=O)N3` [Example 29, (R)-3-(ethylamino)-6-(1-phenylethyl)-5,6-dihydro-1H-pyrazolo[4,3-g]quinazolin-7(8H)-one] the IC50 was 22 nM. Work on `C[C@H](c1ccccc1)N1Cc2cc3c(-c4ccc5nnn(C)c5c4)n[nH]c3cc2NC1=O` [Example 26, (R)-3-(1-methyl-1H-benzo[d][1,2,3]triazol-6-yl)-6-(1-phenylethyl)-5,6-dihydro-1H-pyrazolo[4,3-g]quinazolin-7(8H)-one] yielded an IC50 of 0.3 nM.
